Experimental findings from US20120142723A1, “ACE2 ACTIVATOR COMPOUNDS AND METHODS OF USE THEREOF” (University of Florida Research Foundation, Inc., priority 2006, published 2012) are described below.

Entries after “also recorded” stand apart in the source; their conditions may differ. Like-named read-outs stand apart in the source and are kept apart here.

The target in data set [1] is T1, Human recombinant ACE (Homo sapiens, UniProt P12821).
T1 construct: purchased R&D Systems, Minneapolis, Minn; 929-ZN-10
In words: ACE activity assay with fluorogenic peptide V. Format: biochemical. As to the method:
(§1) Activity of ACE and ACE2 was measured with a Spectra Max Gemini EM Florescence Reader (Molecular Devices). The enzyme removes the c-terminal dinitrophenyl moiety that quenches the inherent fluorescence of its 7-methoxycoumain group, resulting in an increase in fluorescence in the presence of enzyme activity. Fluorescence was measured with excitation and emission spectra of 328 nm and 392 nm, respectively. Reaction mixtures were prepared in 100 μl volumes and different concentrations of compound were tested against 10 μM substrate. 10 nM enzyme in 100 mM NaCl, 75 mM Iris, 0.5 μM ZnCl2, at pH 7.4. Samples were read every 15-20 seconds for at least 30 minutes immediately after the addition of fluorogenic peptide substrate at 37° C. Assays, including controls, were performed in the presence of 1% dimethyl sulfoxide (DMSO). Although higher concentrations of NaCl increase the activity of ACE2 and ACE (Vickers et al. 2002), a low concentration of salt (100 mM NaCl) was used in the assays to allow for enhancement of enzymatic activity to be detectable. That is, using 1 M NaCl which gives a maximal enhancing effect from the Cl ions might not allow the compounds to further enhance the activity of the enzyme. The lower salt concentration should give the compounds available room for activation.
Controls in the presence and absence of DMSO and without compound were carried out to evaluate the effect of DMSO on the activity of ACE and ACE2. […]
Human recombinant ACE and ACE2 were obtained from R&D systems, Minneapolis, Minn., along with their respective fluorogenic substrates (ACE, catalog ID: 929-ZN-10; ACE2, 933-ZN-10; ACE substrate, fluorogenic peptide V, Mca RPPGFSAFK(Dnp)-OH, catalog ID: ES005; ACE2 substrate, fluorogenic peptide VI, Mca-YVADAPK(Dnp)-OH, ES007). Enzymatic activity was measured with a Spectra Max Gemini EM Fluorescence Reader (Molecular Devices) (Huentelman et al., Regul. Pept. 122:61-67 (2004)). […] Samples were read every 15-30 seconds for at least 30 minutes immediately after the addition of fluorogenic peptide substrates at 37° C. […]

The nature of data set [2]: Solubility as observed during assays and formulation. Format: physicochemical. The source says: Recombinant ACE and ACE2 were obtained in purified form from R&D Systems, Minneapolis, Minn. (catalog ID: 929-ZN-10 and 933-ZN-10, respectively). Substrates for ACE (fluorogenic peptide V, Mca-RPPGFSAFK(Dnp)-OH, catalog ID: ES005), and for ACE2 (fluorogenic peptide VI, Mca-YVADAPK(Dnp)-OH, catalog ID: ES007) were also obtained from R&D systems. Top scoring molecules were obtained from the National Cancer Institute (NCI) for functional testing. Dry compounds were resuspended in 100% DMSO to prepare 100 mM stock solutions, according to the amount of compound provided by the NCI and its molecular weight. Gentle heating to 60-80 C was carried out to assist their solubilization. Some compounds were further diluted to 50 mM stocks if clearly difficult to dissolve.
XNT was dissolved in saline at low pH (2-2.5) for in vivo studies. This compound was consistently prepared 24-48 hours before delivery in animals. XNT was prepared on a gram scale in six synthetic steps from 5-methoxysalicylic acid and m-chloroiodobenzene through modifications of a published procedure (Archer et al., J. Med. Chem. 26:1240-1246 (1983); Archer et al., J. Med. Chem. 31:254-260 (1988).

The target of data set [3] is T2, human recombinant ACE2 (Homo sapiens, UniProt Q9BYF1).
T2 construct: purchased R&D Systems, Minneapolis, Minn; 933-ZN-10
In words: ACE2 activity assay with fluorogenic peptide VI. Format: biochemical. How it is done:
as §1
Controls in the presence and absence of DMSO and without compound were carried out to evaluate the effect of DMSO on the activity of ACE and ACE2. Assays with no DMSO, 1% DMSO, and 2% DMSO were performed in identical conditions (i.e, pH, temperature, salt concentration, reaction mix volume and so on) to those of the experimental assays.
The experimental assays were corrected at each concentration since higher or lower concentrations of compounds affected the background signal in a concentration dependent manner.
Human recombinant ACE and ACE2 were obtained from R&D systems, Minneapolis, Minn., along with their respective fluorogenic substrates (ACE, catalog ID: 929-ZN-10; ACE2, 933-ZN-10; ACE substrate, fluorogenic peptide V, Mca RPPGFSAFK(Dnp)-OH, catalog ID: ES005; ACE2 substrate, fluorogenic peptide VI, Mca-YVADAPK(Dnp)-OH, ES007). Enzymatic activity was measured with a Spectra Max Gemini EM Fluorescence Reader (Molecular Devices) (Huentelman et al., Regul. Pept. 122:61-67 (2004)). Compounds were tested against 50 μM substrate. All assays were performed at least in triplicate in a reaction mixture containing 10 nM enzyme, 1 M NaCl, 75 mM Tris-HCl, 1% DMSO and 0.5 μM ZnCl2, at pH 7.4. Samples were read every 15-30 seconds for at least 30 minutes immediately after the addition of fluorogenic peptide substrates at 37° C. […] Enzyme activity was corrected for background.

Setting [4] is: listed as resorcinolnaphthalein.

T1 sequence (P12821 30-1261 limits assumed): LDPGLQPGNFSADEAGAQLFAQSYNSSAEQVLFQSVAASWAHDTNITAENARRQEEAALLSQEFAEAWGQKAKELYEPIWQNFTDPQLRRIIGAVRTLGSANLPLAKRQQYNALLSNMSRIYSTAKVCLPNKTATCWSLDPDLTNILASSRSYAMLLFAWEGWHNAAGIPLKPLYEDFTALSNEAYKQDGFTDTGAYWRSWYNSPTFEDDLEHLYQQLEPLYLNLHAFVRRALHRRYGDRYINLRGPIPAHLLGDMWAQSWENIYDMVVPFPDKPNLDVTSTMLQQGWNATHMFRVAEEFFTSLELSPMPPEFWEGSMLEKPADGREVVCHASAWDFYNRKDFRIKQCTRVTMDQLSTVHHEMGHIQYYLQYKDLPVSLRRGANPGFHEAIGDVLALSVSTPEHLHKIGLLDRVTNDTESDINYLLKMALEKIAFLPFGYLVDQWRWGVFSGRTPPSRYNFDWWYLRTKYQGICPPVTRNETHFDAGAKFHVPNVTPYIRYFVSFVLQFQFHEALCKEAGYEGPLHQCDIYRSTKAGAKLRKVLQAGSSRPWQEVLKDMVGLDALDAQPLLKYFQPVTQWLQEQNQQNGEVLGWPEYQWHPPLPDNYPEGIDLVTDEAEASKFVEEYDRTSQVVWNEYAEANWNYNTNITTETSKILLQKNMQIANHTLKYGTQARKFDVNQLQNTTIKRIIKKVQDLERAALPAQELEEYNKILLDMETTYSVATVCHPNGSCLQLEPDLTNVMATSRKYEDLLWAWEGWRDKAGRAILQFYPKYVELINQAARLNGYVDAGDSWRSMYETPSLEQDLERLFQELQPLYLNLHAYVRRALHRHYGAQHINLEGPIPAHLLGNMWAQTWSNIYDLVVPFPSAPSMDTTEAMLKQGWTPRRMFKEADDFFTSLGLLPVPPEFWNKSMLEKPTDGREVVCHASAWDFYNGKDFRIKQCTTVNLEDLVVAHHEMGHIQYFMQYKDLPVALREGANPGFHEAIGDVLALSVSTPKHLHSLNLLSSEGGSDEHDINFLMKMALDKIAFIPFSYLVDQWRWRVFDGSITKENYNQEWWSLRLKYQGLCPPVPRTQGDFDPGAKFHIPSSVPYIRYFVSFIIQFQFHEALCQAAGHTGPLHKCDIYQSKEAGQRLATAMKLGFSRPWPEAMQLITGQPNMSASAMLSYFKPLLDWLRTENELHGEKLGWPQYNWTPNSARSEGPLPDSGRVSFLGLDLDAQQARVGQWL
T2 sequence (Q9BYF1 18-740 limits assumed): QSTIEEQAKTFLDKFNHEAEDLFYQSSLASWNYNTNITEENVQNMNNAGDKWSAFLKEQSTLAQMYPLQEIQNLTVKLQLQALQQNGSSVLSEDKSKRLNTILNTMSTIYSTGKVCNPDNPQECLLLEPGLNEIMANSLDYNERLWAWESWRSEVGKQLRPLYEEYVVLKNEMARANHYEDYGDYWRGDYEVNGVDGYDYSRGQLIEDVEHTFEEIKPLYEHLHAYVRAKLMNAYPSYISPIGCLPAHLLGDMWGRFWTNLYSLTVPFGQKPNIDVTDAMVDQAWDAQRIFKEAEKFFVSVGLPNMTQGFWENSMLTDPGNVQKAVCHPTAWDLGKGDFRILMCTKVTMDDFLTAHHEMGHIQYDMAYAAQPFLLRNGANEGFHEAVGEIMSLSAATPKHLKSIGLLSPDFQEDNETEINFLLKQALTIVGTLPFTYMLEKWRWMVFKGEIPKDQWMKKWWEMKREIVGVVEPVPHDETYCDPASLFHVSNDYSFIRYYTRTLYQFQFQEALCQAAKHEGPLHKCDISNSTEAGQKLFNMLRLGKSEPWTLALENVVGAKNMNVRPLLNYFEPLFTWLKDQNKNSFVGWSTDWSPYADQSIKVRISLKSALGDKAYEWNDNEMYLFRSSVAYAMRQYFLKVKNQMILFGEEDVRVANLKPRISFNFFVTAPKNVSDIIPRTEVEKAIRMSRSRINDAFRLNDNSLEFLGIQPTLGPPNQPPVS

Turning to `O=C1OC2(c3ccc(O)cc3Oc3cc(O)ccc32)c2cccc3cccc1c23` [Compound 6, resorcinalnaphthalein], the ACE activity entry in data set [1] was “do not enhance ACE activity”; in data set [1] (50 or 100 μM compound), “did not activate; also recorded: not enhanced”; in data set [1] (setting [4]), “did not significantly affect”. Also, the solubility entry in data set [2] is listed as “significantly more insoluble”. The “ACE2 activity, dose response” value in data set [3] was “did not show the same dose response”; in data set [3] (setting [4]), “dose-dependent manner”. Moreover, the ACE2 activity entry in data set [3] (100 μM compound) was “ACE2-specific enhancement”; in data set [3] (500 μM compound) it was “returned down to control level”; in data set [3] (20, 50 and 100 μM compound), “activated ACE2 identically; also recorded: identical curves”; in data set [3] (concentrations higher than 100 μM) it was “inhibited ACE2”. Also, the “increase of ACE2 activity” value in data set [3] (100 μM compound, FIG. 3, 40 minute time course) was “about 2 fold”; in data set [3] (initial functional screening), “about 2 fold”. For the same compound, the “enhancement of ACE2 enzymatic activity” value in data set [3] (confirmation assay, 1% DMSO) turned out to be 2 fold.
